Test system: arylamidase activity
Assay: Inhibitory effect of 5NSA on arylamidase activity (initial hydrolytic rates with and without added 5NSA)
Format: biochemical
Text: At 10 mmol/liter, 50% inhibition of all enzyme activities occurs. Interfering side reactions with 5NSA may occur. The compound reacts with both aliphatic and aromatic amine groups to form Schiff-Base complexes. Particularly susceptible are proteins containing lysine and glutamine. […] Cell proteins react at higher concentrations, i.e., above 1 mmol/liter of 5NSA, to form a blue-green fluorescence, which may account for as much as 15% of the cellular fluorescence at 530 nm. Use of appropriate filters to block out green fluorescence will block out the nonspecific cell protein reaction with 5NSA.

[1] = 1 mmol/liter 5NSA, initial hydrolytic rate with vs without 5NSA

Effect on Carbobenzoxy-arg-arg-4M2NA hydrolysis [1]: not affected significantly
Effect on Lys-Ala-4M2NA activity [1]: not affected significantly
inhibition of all enzyme activities (10 mmol/liter 5NSA): 50%
Structure (SMILES): O=Cc1cc([N+](=O)[O-])ccc1O [5NSA, 5-nitrosalicylaldehyde]

— patent US4229528A, “Fluorescence method for enzyme analysis which couples aromatic amines with aromatic aldehydes” (priority 1978, dated 1980)
